Series [1] is described as follows: Heme-peptide binding assay (colour change). To be noted: equimolar heme and peptide, 100 µM, 1 h, room temperature. The protocol:
Heme solutions were freshly prepared by dissolving hemin chloride (Sigma Cat No: 3741) in 0.1 M NaOH and used within an hour after preparation. Two heme-sequestering peptides, NCR247 and NCR455 ([Montiel et al., 2017]; [Sankari et al., 2022]), were used as positive controls, and water-only treatment as a negative control. The equimolar concentration of heme and peptide (100 µM) or water were mixed and incubated at room temperature for 1 h. When dissolved in NaOH, heme is light to dark brown in color; however, when it binds to a peptide, the color changes to reddish-brown as described by [Sankari et al. (2022)]. The change in color of heme to reddish-brown indicated the heme binding ability of the peptide.

A short description of series [2]: Peroxidase assay (TMB substrate). It is filed as biochemical. The conditions noted are these: heme 5 µM, peptide 5 µM, absorption at 370 nm and 652 nm. The protocol: A Pierce TMB substrate kit (Thermo Scientific) was used to measure the peroxidase activity of heme. In a transparent 96-well plate, 50 µl of TMB substrate and 50 µl of […] were added followed by addition of heme (5 µM) or peptides plus heme (5 µM each). The reaction progression was measured in the Tecan plate reader, by recording UV-vis absorption values at 370 nm and 652 nm for every minute up to 1 h.

In series [3] the test system is C. sojina QoI fungicide-sensitive isolate Cs320. Put plainly: microbe, parasite or virus in culture. It is filed as cell-based, Cercospora sojina. The protocol: (§1) In vitro antifungal activity of AFPs and QoI fungicides was determined using 96-well plate assays as described ([Velivelli et al., 2020]) with slight modifications. Briefly, 2- to 3-week-old C. sojina was used to make a conidial suspension in 2× SFM at the final concentration of ∼10^5 conidia ml^−1. Simultaneously, peptide dilutions (in water) at various concentrations were made. Fungicides were dissolved in 50% acetone and 50% water to make a stock solution of 500 µM, and serial dilutions were made in water as needed. The peptide–conidia or the fungicide–conidia mixture at the ratio of 1:1 (45 µl:45 µl) was added in a 96-well plate and incubated at room temperature for 48 h, after which MICs of the peptides/fungicides were calculated based on microscopy as well as the resazurin cell viability assay ([Velivelli et al., 2020]).

Series [4] deals with C. sojina Cs350 conidia and germlings. The experiment in a line: Plasma membrane permeabilization assay (SYTOX Green). The series is classed as cell-based, Cercospora sojina. To be noted: Cs350; 0.5 µM SG; confocal microscopy. The protocol:
Membrane permeabilization of C. sojina Cs350 by NCR13_PFV1 and azoxystrobin was analyzed by visualizing the influx of SYTOX Green (SG) (Thermo Scientific) using time-lapse confocal microscopy. Germlings grown for 6–8 h or conidia of C. sojina were mixed with various concentrations of NCR13_PFV1, azoxystrobin, or both and 0.5 µM SG and were observed under confocal microscopy at an excitation wavelength of 500 nm and an emission wavelength ranging from 510 nm to 600 nm at specific time intervals. A z-stack at each time point was acquired using a ×63 water immersion objective lens (HC PL Apochromat CS2).

Series [5] concerns C. sojina Cs350 on soybean cv. Blackhawk (FLS). Put plainly: In planta post-inoculation assay of NCR13_PFV1 and azoxystrobin combinations. To be noted: azoxystrobin alone sprayed at 3 µM and 6 µM. It is filed as in vivo, Cercospora sojina.
Method: To further test additive/synergistic interaction between NCR13_PFV1 and azoxystrobin against the fungicide-resistant isolate Cs350, in planta assays were performed. These assays were similar to the post-inoculation in planta assays as mentioned above. Briefly, second or third trifoliate leaves of soybean were first sprayed with 1 ml of Cs350 conidial suspension (1×10^5 ml^−1) followed by spray application with 1 ml of NCR13_PFV1 (24 µM) or azoxystrobin (3 µM or 6 µM) or their combination (24 µM NCR13_PFV1 plus 3 µM azoxystrobin or 24 µM NCR13_PFV1 plus 6 µM azoxystrobin) or water after 2 h of pathogen inoculation. Plants were incubated in the growth chamber, and disease scoring was done as described above.
Series [6] relates to azoxystrobin-resistant C. sojina Cs350 conidia. Put plainly: Cell death detection assay (propidium iodide, confocal microscopy). It is filed as cell-based, Cercospora sojina. To be noted: azoxystrobin 48 μM alone; within 1 h; PI staining; n=3. The protocol:
The fungicidal activity of azoxystrobin and peptide NCR13_PFV1 in azoxystrobin-resistant C. sojina Cs350 was analyzed by visualizing the influx of a cell death indicator dye propidium iodide (PI) using time-lapse confocal microscopy. The C. sojina conidia were treated with various concentrations of azoxystrobin, NCR13_PFV1, azoxystrobin plus NCR13_PFV1, or water and 0.5 μg ml^–1 PI, and were observed under confocal microscopy at an excitation and emission wavelength of 500 nm and 545–690 nm, respectively. Z-stacks at each time point were acquired using a ×63 water immersion objective lens (HC PL Apochromat CS2). For each sample, the number of live and dead cells after 1 h of peptide, fungicide, or combination treatment was determined.

In series [7] the test system is C. sojina Cs320 (fungicide sensitive). Put plainly: Peptide-fungicide checkerboard assay. The series is classed as cell-based, Cercospora sojina. The conditions noted are these: Cs320, in vitro, 96 h. On the procedure:
(§2) Synergy between NCR13_PFV1 and the widely used QoI foliar fungicides, azoxystrobin (Sigma-Aldrich, Cat No: 31697), trifloxystrobin (Sigma-Aldrich, Cat No: 46447), and pyraclostrobin (Sigma-Aldrich, Cat No: 33696), were evaluated using checkerboard assays. This assay was performed in a 96-well plate and the preparation of conidial suspension, peptide dilutions, and fungicide dilutions were similar to the in vitro antifungal activity assay described above. The presence of an alternative respiration pathway allows some fungi including C. sojina to germinate even in the presence of a high dose of QoI fungicides in vitro ([Ziogas et al., 1997]; [Zhang et al., 2012]). Therefore, to prevent alternative respiration in C. sojina, salicylhydroxamic acid (SHAM) was added in each reaction at the final concentration of 60 µg ml^–1 ([Zhang et al., 2012]). The conidia, peptide, fungicide, and SHAM were added in a 96-well plate at the v/v ratio of 4:1:1:2 (50 µl:12.5 µl:12.5 µl:25 µl) in the final reaction volume of 100 µl, and the plate was incubated at room temperature for 96 h (4 d). After 96 h, MIC values of the peptide–fungicide combination, peptide alone, and fungicide alone were calculated based on microscopy as well as the resazurin cell viability assay. The fractional inhibitory concentration (FIC) index was calculated using the formula FIC = (MICA+B/MICA) + (MICB+A/MICB), where MICA and MICB are the MIC for peptide (A) alone and fungicide (B) alone, respectively, MICA+B is the MIC for peptide in combination with fungicide (A+B), and MICB+A is the MIC for fungicide in combination with peptide (B+A). The FIC index was interpreted as: synergistic, ≤0.5; additive, >0.5–1.0; indifferent, >1 to <4.0; or antagonistic, ≥4.0.

Series [8] has as its system C. sojina Cs350 (fungicide resistant). The experiment in a line: Peptide-fungicide checkerboard assay. It is filed as cell-based, Cercospora sojina. The protocol:
as §2

In series [9] the test system is C. sojina QoI fungicide-resistant isolate Cs350. It is filed as cell-based, Cercospora sojina. The protocol:
as §1

Series [10] concerns fungicide-sensitive and -resistant isolates of C. sojina. The experiment in a line: In vitro antifungal activity assay (MIC stated across isolates). The series is classed as cell-based, Cercospora sojina. On the procedure: as §1
[11] abbreviates: SFM, ~10^5 conidia ml−1, room temperature, 48 h, resazurin cell viability assay and microscopy.

Where no end group is shown, it is not given here.

Turning to “RNGCIVDPRCPYQQCRRPLYCRRR [NCR247, reference compound]”, the “heme binding (colour change of heme from brown to reddish-brown)” value in series [1] was “visible color change of heme from brown to reddish-brown”. Further, in [2], the “peroxidase activity of heme and FeSO4 in the presence of peptide” value (“peroxidase activity of heme and FeSO4” below) was “reduced or stopped”.
In the case of “RNGCIVDARCPYQKCSYPLYCRRR [NCR455, reference compound]”, the “heme binding (colour change of heme from brown to reddish-brown)” value in series [1] is listed as “visible color change of heme from brown to reddish-brown”. Moreover, in series [2], the “peroxidase activity of heme and FeSO4” value is recorded as “reduced or stopped”.
For the compound `CO/C=C(/C(=O)OC)c1ccccc1Oc1cc(Oc2ccccc2C#N)ncn1` [Azoxystrobin, azoxystrobin], the “MIC (µM) against Fungicide sensitive C. sojina isolate (Cs320)” value in series [3] (QoI fungicides, determined in 2 days, 0.02 µM lowest concentration tested) is 0.09 to 0.18 µM. The “plasma membrane permeabilization (SYTOX Green uptake)” value in series [4] is given as “did not permeabilize the plasma membrane”. Besides, the “FLS symptoms in planta” value in series [5] is “able to reduce FLS symptoms in planta”. Further, in [6], the cell death is given as 11%. Also, the “interaction with NCR13_PFV1 by FIC index” value in series [7] was “additive (additive, >0.5–1.0)”; in [8] (Cs350, in vitro, 96 h) it was “additive (additive, >0.5–1.0)”. Also, the FIC score in series [8] (pair azoxystrobin / NCR13_PFV1, Cs350, 4 d) was at most 1. In addition, the “Combination MIC” value in series [8] (pair azoxystrobin / NCR13_PFV1, Cs350, 4 d, SHAM 60 µg ml–1, microscopy) amounted to 48 µM. For the same compound, the minimum inhibitory concentration (MIC) in series [8] (pair azoxystrobin / NCR13_PFV1, Cs350, 4 d, SHAM 60 µg ml–1, microscopy, highest fungicide concentration 48 µM, read-out: Individual MIC) was over 48 µM.
As to “TKPCQSDKDCKKFACRKPKVPKCINGFCKCVR (disulfide (positions not given here)) [NCR13_PFV2]”, in series [1], the “heme binding (colour change of heme from brown to reddish-brown)” value was “no such color change”. In series [2], the “peroxidase activity of heme and FeSO4” value was “not reduced or stopped”. The “fold increase of MIC with increasing iron concentration” value in series [9] (FeSO4 in SFM) amounted to 2 fold. Further, in [9] (setting [11]), the “MIC (μM) against C. sojina, Fungicide resistant, Cs350” value was determined as 3 µM. The “MIC (μM) against C. sojina isolates, Fungicide sensitive, Cs320” value in [3] (setting [11]) stood at 1.5 µM. Moreover, in series [10] (from MIC against C. sojina), the “fold less potent than NCR13_PFV1” value is listed as 2 fold. For the same compound, in series [10] (range over Cs320 and Cs350, 48 h), the “MIC against fungicide-sensitive and -resistant isolates of C. sojina” value is 1.5 to 3 µM.

Values taken from PMC13672995, “NCR13 peptide protects soybean against Cercospora sojina using multi-faceted modes of action and additive interaction with chemical fungicides” (Journal of Experimental Botany, 2025).
